Results as given in paper PMC8348780, “Preparation and Evaluation of Novel Folate Isonitrile ^99mTc Complexes as Potential Tumor Imaging Agents to Target Folate Receptors” (Molecules, 2021).

Legend:
[1] = Partition coefficient, 1-octanol / phosphate buffer pH 7.4; format: physicochemical; details: 1-octanol / phosphate buffer 0.025 M
Procedure: The partition coefficient was measured as follows: 1.9 mL of phosphate buffer solution (0.025 M, pH 7.4), 2.0 mL of 1-octanol, and 0.1 mL of ^99mTc-CN5FA or ^99mTc-CNPFA solution were added to the centrifuge tube, and the sample was swirled for 5 min and centrifuged for 5 min (3000 r/min). Then, the radioactivity counts of the two phases were measured by taking 0.1 mL from the organic phase and the water phase. The partition coefficient P was calculated. The final partition coefficient was expressed as log P ± SD.

[2] = test system: KB tumor-bearing mice; test: SPECT/CT imaging study in KB tumor-bearing mice; format: in vivo, BALB/c nude mice; details: 2 h post injection, about 18.5 MBq i.v.
Procedure: The SPECT/CT imaging experiments were also divided into a normal group and an inhibition group (n = 3). The labeled solution (about 18.5 MBq) was injected into the tail vein of nude mice bearing KB tumor. The inhibition group was injected with 100 µg FA (about 4 × 10^4 µg/kg) 30 min in advance. After 2 h, the SPECT/CT scan was performed in anesthetized mice by using 1.5% isoflurane. The SPECT acquisition (peak value 140 keV, 20% width, 90° rotation, MMP 919 Collimator) was performed after 4 min of CT scanning (512 views, 2 × 2 binding, 75 kV, exposure time 230 ms). SPECT/CT images were made using HiSPECT software and vivoquant 2.5 software.

[3] = Stability in mouse serum at 37 °C (RCP by radio-HPLC); format: in vitro ADME; details: 4 h
Procedure: (§1) The complexes were determined by ITLC/SG of the ACD system and radio-HPLC. The ITLC/SG trip was cut into 10 equal parts, and radioactive counting of ITLC strips was determined by a γ-counter. ITLC results of both complexes were as follows: in ACD solution, [^99mTc]Tc-CN5FA and [^99mTc]Tc-CNPFA stayed at the origin (Rf = 0–0.1), while ^99mTcO4^− (Rf = 0.9–1.0) and ^99mTcO2·nH2O (Rf = 0.8–1.0) were moved to the front. Radio-HPLC was analyzed by a mobile phase system consisting of 0.1% TFA water (solvent A) and 0.1% TFA acetonitrile (solvent B) with a gradient of 0−2 min 10% B, 2−5 min 10%−90% B, 10−20 min 90% B, and 20−25 min 90%−10% B (system B) at a flow rate of 1 mL/min. All experiments were performed in triplicate.
(§2) The stability of [^99mTc]Tc-CN5FA and [^99mTc]Tc-CNPFA in vitro was evaluated by measuring the RCP of the complexes. Stability in saline was achieved by holding the solution at room temperature for 4 h. Stability in the serum was achieved by mixing 100 μL of [^99mTc]Tc-CN5FA or [^99mTc]Tc-CNPFA with 200 μL of mouse serum at 37 °C for 4 h. After precipitation using acetonitrile, centrifugation, and concentration, the solutions were analyzed by radio-HPLC.

[4] = target: T1, folate receptor (KB cells) (Homo sapiens, UniProt P15328); test: In vitro competitive binding with KB cells; details: 37 °C, 2 h, competitive binding with inhibitor
T1 construct: endogenous in cells; host or cells: KB cells
Procedure: KB cells were cultured with FFRPMI 1640 medium 24 h in advance on a 48-well plate with 5 × 10^4 cells per well. The labeling solution was diluted to 5 μCi/mL with the same medium after growing, and the inhibitor was prepared at different concentrations. The 48-well plates were divided into eight groups, and each group was incubated with 100 μL of inhibitor solution, 100 μL of diluted labeled solution (5 μCi/mL), and 200 μL of medium at 37 °C for 2 h.
After removing the cell plate from the incubator, the medium was removed, and the cells were washed with PBS (0.1 M, pH 7.4). The washed cells were lysed with NaOH (1 M) for 5 min. Pyrolysates were collected in the hoses, and the radioactivity count of each hose was measured by a γ-counter. The data were analyzed with GraphPad Prism 5.0 and nonlinearly fit to the log IC50 ± SD value.

[5] = test system: KB tumor-bearing mice; test: Biodistribution study in KB tumor-bearing mice; format: in vivo, BALB/c nude mice; details: for Tumor uptake: KB tumor
Procedure: The biodistribution experiments were divided into normal groups and inhibition groups (n = 3), in which the inhibition group was injected with inhibitor (about 4 × 10^4 µg/kg) 30 min in advance. The KB tumor-bearing mice were decapitated 30 and 120 min after the tail vein injection of 0.1 mL labeled solution (about 7.4 × 10^4 Bq). The heart, liver, lung, kidney, spleen, stomach, bone, muscle, intestine, tumor, blood, and other related tissues and organs were wiped clean and weighed, and the radioactivity count was measured. Each tissue per gram of injection dose (%ID/g) was calculated.

[6] = Stability in saline / radiolabeling solution at room temperature (RCP by radio-HPLC); format: physicochemical; details: 4 h
Procedure: as §1, §2

[7] = 2 h p.i., block: FA about 4 × 10^4 µg/kg 30 min in advance

T1 sequence (P15328 25-257): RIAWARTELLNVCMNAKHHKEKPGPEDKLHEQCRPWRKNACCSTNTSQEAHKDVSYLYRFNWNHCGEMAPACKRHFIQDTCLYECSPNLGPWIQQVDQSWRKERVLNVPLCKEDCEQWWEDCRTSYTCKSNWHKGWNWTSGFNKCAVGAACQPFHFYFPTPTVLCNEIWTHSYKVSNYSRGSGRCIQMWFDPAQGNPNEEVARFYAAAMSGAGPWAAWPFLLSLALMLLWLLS

log P [1]: −1.92 ± 0.15 | RCP after incubation [3]: more than 95% | IC50 [4]: 37.9 ± 0.41 nM | T/B (tumor/blood ratio) ([5]; 0.5 h p.i.): 1.28 | T/M (tumor/muscle ratio) ([5]; 0.5 h p.i.): 1.76 | Blood uptake ([5]; 0.5 h p.i., i.v., n = 3): 2.36 ± 0.10 %ID/g | Bone uptake ([5]; 0.5 h p.i., i.v., n = 3): 1.03 ± 0.09 %ID/g | Heart uptake ([5]; 0.5 h p.i., i.v., n = 3): 2.60 ± 0.16 %ID/g | Intestines uptake ([5]; 0.5 h p.i., i.v., n = 3): 2.35 ± 0.79 %ID/g | Kidney uptake ([5]; 0.5 h p.i., i.v., n = 3): 47.20 ± 2.99 %ID/g | Liver uptake ([5]; 0.5 h p.i., i.v., n = 3): 13.91 ± 1.27 %ID/g | Lung uptake ([5]; 0.5 h p.i., i.v., n = 3): 2.88 ± 0.09 %ID/g | Muscle uptake ([5]; 0.5 h p.i., i.v., n = 3): 1.72 ± 0.10 %ID/g | Spleen uptake ([5]; 0.5 h p.i., i.v., n = 3): 3.07 ± 0.03 %ID/g | Stomach uptake ([5]; 0.5 h p.i., i.v., n = 3): 2.17 ± 0.70 %ID/g | Thyroid uptake ([5]; 0.5 h p.i., i.v., n = 3): 0.05 ± 0.00 %ID | T/M (tumor/muscle ratio) ([5]; 2 h p.i.): 1.91 | Blood uptake [5, 7]: 1.05 ± 0.08 %ID/g | Bone uptake [5, 7]: 1.02 ± 0.18 %ID/g | Heart uptake [5, 7]: 0.84 ± 0.05 %ID/g | Intestines uptake [5, 7]: 1.39 ± 0.15 %ID/g | Kidney uptake [5, 7]: 35.40 ± 4.08 %ID/g | Liver uptake [5, 7]: 10.22 ± 0.43 %ID/g | Lung uptake [5, 7]: 2.27 ± 0.16 %ID/g | Muscle uptake [5, 7]: 0.61 ± 0.10 %ID/g | Spleen uptake [5, 7]: 4.52 ± 0.38 %ID/g | Stomach uptake [5, 7]: 1.70 ± 0.16 %ID/g | Thyroid uptake [5, 7]: 0.03 ± 0.00 %ID | Blood uptake ([5]; 2 h p.i., i.v., n = 3): 1.08 ± 0.03 %ID/g | Bone uptake ([5]; 2 h p.i., i.v., n = 3): 0.87 ± 0.16 %ID/g | Heart uptake ([5]; 2 h p.i., i.v., n = 3): 2.29 ± 0.26 %ID/g | Intestines uptake ([5]; 2 h p.i., i.v., n = 3): 1.38 ± 0.15 %ID/g | Kidney uptake ([5]; 2 h p.i., i.v., n = 3): 51.92 ± 3.10 %ID/g | Liver uptake ([5]; 2 h p.i., i.v., n = 3): 11.88 ± 1.22 %ID/g | Lung uptake ([5]; 2 h p.i., i.v., n = 3): 2.78 ± 0.57 %ID/g | Muscle uptake ([5]; 2 h p.i., i.v., n = 3): 1.27 ± 0.03 %ID/g | Spleen uptake ([5]; 2 h p.i., i.v., n = 3): 3.08 ± 0.42 %ID/g | Stomach uptake ([5]; 2 h p.i., i.v., n = 3): 2.00 ± 0.33 %ID/g | Thyroid uptake ([5]; 2 h p.i., i.v., n = 3): 0.03 ± 0.01 %ID | Tumor uptake ([5]; 0.5 h p.i., i.v., n = 3): 3.03 ± 0.10 %ID/g | Tumor uptake [5, 7]: 1.53 ± 0.10 %ID/g | Tumor uptake ([5]; 2 h p.i., i.v., n = 3): 2.42 ± 0.44 %ID/g | RCP after incubation [6]: more than 95%
SMILES: [99Tc+].[C-]#[N+]CCCCCC(=O)NCCNC(=O)CC[C@H](NC(=O)c1ccc(NCc2cnc3nc(N)[nH]c(=O)c3n2)cc1)C(=O)O.[C-]#[N+]CCCCCC(=O)NCCNC(=O)CC[C@H](NC(=O)c1ccc(NCc2cnc3nc(N)[nH]c(=O)c3n2)cc1)C(=O)O.[C-]#[N+]CCCCCC(=O)NCCNC(=O)CC[C@H](NC(=O)c1ccc(NCc2cnc3nc(N)[nH]c(=O)c3n2)cc1)C(=O)O.[C-]#[N+]CCCCCC(=O)NCCNC(=O)CC[C@H](NC(=O)c1ccc(NCc2cnc3nc(N)[nH]c(=O)c3n2)cc1)C(=O)O.[C-]#[N+]CCCCCC(=O)NCCNC(=O)CC[C@H](NC(=O)c1ccc(NCc2cnc3nc(N)[nH]c(=O)c3n2)cc1)C(=O)O.[C-]#[N+]CCCCCC(=O)NCCNC(=O)CC[C@H](NC(=O)c1ccc(NCc2cnc3nc(N)[nH]c(=O)c3n2)cc1)C(=O)O [[^99mTc]Tc-CN5FA]
Visualization of tumor lesions by SPECT/CT [2]: clearly visualized
